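The compound was tested at five concentrations on cells cultured in 96-well plates, with a 48-hour exposure period. TGI: concentration producing complete growth inhibition.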
Tests used:
Assay in all cases: NCI tumour cell line growth inhibition, 48 h
[1] = test system: A549 NSCLC
[2] = test system: DU-145 prostate
[3] = test system: K-562 leukemia
[4] = test system: LOX IMVI melanoma
[5] = test system: NCI-H460 lung
[6] = test system: SN12C renal
[7] = test system: HS 578T breast
[8] = test system: EKVX NSCLC
[9] = test system: NCI/ADR-RES ovarian
[10] = test system: SF-295 CNS
[11] = test system: PC-3 prostate
[12] = test system: SF-268 CNS
[13] = test system: SK-MEL-2 melanoma
[14] = test system: HCT-116 colon
[15] = test system: CCRF-CEM leukemia
[16] = test system: MCF7 breast
[17] = test system: TK-10 renal
[18] = test system: OVCAR-4 ovarian

Measured: TGI

CC1(C)C(C#N)=[N+]([O-])C(C)(C)N1O
> 100 µM: all assays above

O=C(NCCc1ccccc1)[C@H]1CCCC[C@@H]1CCO
> 100 µM: all assays above

CC(=O)OCC1OC(n2c(C#N)cc(=O)[nH]c2=O)CC1OC(C)=O (centres undefined)
> 100 µM: all assays above
